Results on 32 compounds are retold here after patent US20080261994A1, “CYCLOPROPANE COMPOUNDS AND PHARMACEUTICAL USE THEREOF” (Japan Tobacco Inc., priority 2003, published 2008).

Some results are limits rather than exact numbers.

Assay type in all cases: biochemical
One assay addresses T1, Recombinant Human MMP-13 (Homo sapiens, UniProt P45452).
T1 construct: purchased R&D systems 511-MM
The experiment in a line: MMP-13 inhibitory activity (MMP-13 specific fluorescent substrate with quencher). The conditions noted are these: Recombinant Human MMP-13, fluorescent substrate, 25° C. for 1 h; read-out: IC50 MMP13 (Experimental Example 3). As to the method: Inhibitory activity of tested compounds on MMP-13 was measured using MMP-13 specific fluorescent substrate with quencher.
The enzyme and substrate were diluted with Tris-HCl buffer, and test compounds were diluted with dimethyl sulfoxide (DMSO).
Test compounds and the enzyme (Recombinant Human MMP-13: R&D systems, 511-MM) were added into 96-well plate. The reaction was initiated by adding synthetic substrate (7-MCA-Pro-CHA-Gly-NVal-His-Ala-DPA: enzyme systems products, Met-06) into the plate. After incubation at 25° C. for 1 h, the reaction was terminated by addition of reaction terminating solution containing acetic acid. Fluorescence intensity of each well was measured (Ex: 325 nm, […] 405 nm) and the MMP-13 inhibitory activity of the compound in each well (%) was calculated based on the values of enzyme-free well and inhibitor-free well. The inhibitory activity of the compound was represented as IC50 (μM).

The next assay concerns the target T2, MMP-1 (Homo sapiens, UniProt P03956).
T2 sequence (P03956 100-469): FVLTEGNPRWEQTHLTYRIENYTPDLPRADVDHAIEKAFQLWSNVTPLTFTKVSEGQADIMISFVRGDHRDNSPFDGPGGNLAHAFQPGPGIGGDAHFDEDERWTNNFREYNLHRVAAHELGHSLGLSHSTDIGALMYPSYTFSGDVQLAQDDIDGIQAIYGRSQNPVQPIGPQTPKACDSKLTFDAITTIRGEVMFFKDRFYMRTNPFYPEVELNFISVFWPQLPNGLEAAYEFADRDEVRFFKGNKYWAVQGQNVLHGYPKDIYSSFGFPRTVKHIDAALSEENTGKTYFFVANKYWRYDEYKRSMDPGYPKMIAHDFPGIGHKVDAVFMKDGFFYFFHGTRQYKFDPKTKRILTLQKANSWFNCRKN
The experiment in a line: MMP-1 inhibitory action (Type I collagen Activity Measurement kit, FITC-labeled collagen type I). The conditions noted are these: MMP-1 inhibitory action, FITC-labeled collagen type I, 37° C. for 3 hr; read-out: IC50 MMP1 (Experimental Example 2).

The target in another assay is T3, aggrecanase-1 (Homo sapiens, UniProt O75173).
T3 sequence (O75173 213-837): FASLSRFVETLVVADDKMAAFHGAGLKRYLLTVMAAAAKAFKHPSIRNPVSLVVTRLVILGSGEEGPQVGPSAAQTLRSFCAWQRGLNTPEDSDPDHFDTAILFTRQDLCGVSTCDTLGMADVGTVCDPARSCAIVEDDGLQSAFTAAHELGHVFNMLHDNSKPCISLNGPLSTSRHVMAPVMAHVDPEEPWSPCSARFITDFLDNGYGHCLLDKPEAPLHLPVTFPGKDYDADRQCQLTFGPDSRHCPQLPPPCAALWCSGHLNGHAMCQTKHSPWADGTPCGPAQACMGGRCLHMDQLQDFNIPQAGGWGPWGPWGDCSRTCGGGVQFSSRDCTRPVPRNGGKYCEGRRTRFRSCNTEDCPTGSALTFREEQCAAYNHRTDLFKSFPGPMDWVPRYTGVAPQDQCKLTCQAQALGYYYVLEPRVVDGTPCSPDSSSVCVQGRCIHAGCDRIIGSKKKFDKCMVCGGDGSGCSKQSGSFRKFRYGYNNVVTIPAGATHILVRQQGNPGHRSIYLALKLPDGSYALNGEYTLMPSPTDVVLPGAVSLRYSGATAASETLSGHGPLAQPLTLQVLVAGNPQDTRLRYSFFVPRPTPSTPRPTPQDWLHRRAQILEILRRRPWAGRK
The experiment in a line: Aggrecanase-1 inhibitory action (Particle Assay, GAG release from aggrecan-containing polyacrylamide particles). As to conditions: aggrecanase-1 inhibitory action; read-out: IC50 AG1 (Experimental Example 1). The procedure, abridged: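 Readout was dimethylmethylene blue absorbance (595 nm) of glycosaminoglycan liberated into supernatant, calibrated with whale chondroitin sulfate. Substrate was aggrecan in polyacrylamide particles, digested 15 h at 37° C in Tris-HCl; TC50 (μM) derived from inhibition relative to no-enzyme and no-inhibitor controls.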

Take `O=C(O)C1(NS(=O)(=O)c2ccc(-c3ccc(Cl)cc3)s2)CC1c1ccccc1` (stereo not drawn) [Example 1-69]: the IC50 was less than 1000 nM at Recombinant Human MMP-13, no less than 10000 nM on MMP-1 and less than 100 nM at aggrecanase-1.
On to `O=C(O)C1(NS(=O)(=O)c2ccc3c(c2)Cc2cc(Br)ccc2-3)CC1c1ccccc1` (stereo not drawn) [Example 1-72], for which the values for the IC50 at Recombinant Human MMP-13, on MMP-1 and on aggrecanase-1 were less than 1000 nM, no less than 1000 nM and less than 100 nM, respectively.
With `O=C(O)C1(NS(=O)(=O)c2ccc(-c3ccc(Cl)cc3)cc2)CC1c1cccc(OCCN2CCOCC2)c1` (stereo not drawn) [Example 1-74], the IC50 on Recombinant Human MMP-13 was less than 100 nM; at MMP-1 it was no less than 1000 nM; on aggrecanase-1, less than 1000 nM.
For `O=C(O)C1(NS(=O)(=O)c2ccc(-c3ccc(Cl)cc3)cc2)CC1c1cccc(OCCn2cccn2)c1` (stereo not drawn) [Example 1-75] the same measures were less than 100 nM, no less than 1000 nM and less than 1000 nM.
For the compound `O=C(O)C1(NS(=O)(=O)c2ccc(-c3ccc(Cl)cc3)cc2)CC1c1cccc(OCc2cccnc2)c1` (stereo not drawn) [Example 1-76], the concentration for half-maximal inhibition (IC50) on Recombinant Human MMP-13 is less than 100 nM; on MMP-1, no less than 10000 nM; at aggrecanase-1, less than 1000 nM.
Regarding `O=C(O)C1(NS(=O)(=O)c2ccc(-c3ccc(Cl)cc3)cc2)CC1c1cccc(OCCn2ccnc2)c1` (stereo not drawn) [Example 1-83], the results for the IC50 at Recombinant Human MMP-13, on MMP-1 and at aggrecanase-1 were less than 100 nM, no less than 1000 nM and less than 1000 nM, respectively.
Regarding `O=C(O)C1(NS(=O)(=O)c2ccc(-c3ccc(Cl)cc3)s2)CC1c1ccccc1OCc1ccccc1` (stereo not drawn) [Example 1-84], the IC50 is less than 1000 nM on Recombinant Human MMP-13, no less than 10000 nM on MMP-1 and less than 1000 nM on aggrecanase-1.
`O=C(O)[C@]1(NS(=O)(=O)c2ccc(-c3ccc(Cl)cc3)s2)C[C@@H]1c1ccccc1` [Example 1-85]: the IC50 was less than 100 nM on Recombinant Human MMP-13, no less than 1000 nM at MMP-1 and less than 100 nM at aggrecanase-1.
Turning to `O=C(O)C1(NS(=O)(=O)c2ccc(-c3ccc(Cl)cc3)s2)CC1c1cccc(OCCO)c1` (stereo not drawn) [Example 1-86], the values for the IC50 on Recombinant Human MMP-13, at MMP-1 and on aggrecanase-1 were less than 1000 nM, no less than 1000 nM and less than 1000 nM, respectively.
`O=C(O)C1(NS(=O)(=O)c2ccc(-c3ccc(Cl)cc3)s2)CC1c1cccc(Oc2cccnc2)c1` (stereo not drawn) [Example 1-88]: the IC50 at Recombinant Human MMP-13 was less than 1000 nM; at MMP-1, no less than 10000 nM; on aggrecanase-1 it was less than 100 nM.
For `O=C(O)C1(NS(=O)(=O)c2ccc(-c3ccc(Cl)cc3)cc2)CC1c1cccc(NCc2cnc[nH]2)c1` (stereo not drawn) [Example 1-90] the same measures were less than 100 nM, no less than 1000 nM and less than 1000 nM.
With `O=C(O)[C@]1(NS(=O)(=O)c2ccc3c(c2)Cc2cc(Br)ccc2-3)C[C@@H]1c1ccccc1` [Example 1-91], the IC50 on Recombinant Human MMP-13 was less than 100 nM; at MMP-1, no less than 1000 nM; at aggrecanase-1, less than 100 nM.
In the case of `O=C(O)C1(NS(=O)(=O)c2ccc3c(c2)Cc2cc(Cl)ccc2-3)CC1c1ccccc1` (stereo not drawn) [Example 1-94], the half-inhibitory concentration (IC50) on Recombinant Human MMP-13 is less than 100 nM; at MMP-1, no less than 1000 nM; at aggrecanase-1, less than 100 nM.
In the case of `O=C(O)C1(NS(=O)(=O)c2ccc(-c3ccc(Cl)cc3)s2)CC1c1ccccc1O` (stereo not drawn) [Example 1-102], the IC50 on Recombinant Human MMP-13 was less than 1000 nM; on MMP-1, no less than 1000 nM; on aggrecanase-1 it was less than 100 nM.
Turning to `CN1CCN(Cc2cccc(C3CC3(NS(=O)(=O)c3ccc(-c4ccc(Cl)cc4)s3)C(=O)O)c2)CC1` (stereo not drawn) [Example 1-103], the values for the IC50 at Recombinant Human MMP-13, at MMP-1 and at aggrecanase-1 were less than 1000 nM, no less than 10000 nM and less than 1000 nM, respectively.
Take `O=C(O)C1(NS(=O)(=O)c2ccc(-c3ccc(Cl)cc3)s2)CC1c1cccc(OCc2cccnc2)c1` (stereo not drawn) [Example 1-107]: the IC50 at Recombinant Human MMP-13 is less than 100 nM; at MMP-1 it was no less than 1000 nM; at aggrecanase-1, less than 100 nM.
As for `O=C(O)C1(NS(=O)(=O)c2ccc(-c3ccc(Cl)cc3)s2)CC1c1cccc(OCc2ccccn2)c1` (stereo not drawn) [Example 1-108], the IC50 on Recombinant Human MMP-13 is less than 100 nM; on MMP-1, no less than 1000 nM; at aggrecanase-1, less than 100 nM.
On to `O=C(O)[C@@]1(NS(=O)(=O)c2ccc3c(c2)Cc2cc(Br)ccc2-3)C[C@H]1c1ccccc1` [Example 1-109], for which the IC50 was less than 1000 nM on Recombinant Human MMP-13, no less than 10000 nM on MMP-1 and less than 1000 nM on aggrecanase-1.
Regarding `O=C(O)c1cccc(C2CC2(NS(=O)(=O)c2ccc(-c3ccc(Cl)cc3)s2)C(=O)O)c1` (stereo not drawn) [Example 1-113], the half-maximal inhibitory concentration (IC50) on Recombinant Human MMP-13 is less than 1000 nM; at MMP-1 it was no less than 1000 nM; at aggrecanase-1, less than 100 nM.
Turning to `O=C(O)COc1cccc(C2CC2(NS(=O)(=O)c2ccc(-c3ccc(Cl)cc3)cc2)C(=O)O)c1` (stereo not drawn) [Example 1-119], the IC50 at Recombinant Human MMP-13 is less than 100 nM; at MMP-1 it was no less than 1000 nM; at aggrecanase-1, less than 100 nM.
Consider `O=C(O)C1(NS(=O)(=O)c2ccc(-c3cc(C(F)(F)F)on3)s2)CC1c1ccccc1` (stereo not drawn) [Example 1-121], for which the IC50 on Recombinant Human MMP-13 is less than 100 nM; at MMP-1, no less than 1000 nM; at aggrecanase-1 it was less than 100 nM.
On to `O=C(O)C1(NS(=O)(=O)c2ccc3c(c2)oc2cc(Cl)ccc23)CC1c1ccccc1` (stereo not drawn) [Example 1-122], for which the IC50 at Recombinant Human MMP-13 is less than 100 nM; on MMP-1, no less than 1000 nM; on aggrecanase-1, less than 100 nM.
Consider `O=C(O)C1(NS(=O)(=O)c2ccc(-c3ccc(Cl)cc3)s2)CC1c1cccc([N+](=O)[O-])c1` (stereo not drawn) [Example 1-127], for which the IC50 on Recombinant Human MMP-13 was less than 1000 nM; on MMP-1, no less than 1000 nM; on aggrecanase-1, less than 100 nM.
The corresponding values for `Nc1cccc(C2CC2(NS(=O)(=O)c2ccc(-c3ccc(Cl)cc3)s2)C(=O)O)c1` (stereo not drawn) [Example 1-128] are less than 1000 nM, no less than 1000 nM and less than 100 nM.
Regarding `O=C(O)C1(NS(=O)(=O)c2ccc(-c3ccc(Cl)cc3)s2)CC1c1cccc(NCc2cccnc2)c1` (stereo not drawn) [Example 1-129], the IC50 on Recombinant Human MMP-13 is less than 100 nM; at MMP-1, no less than 1000 nM; at aggrecanase-1, less than 100 nM.
Turning to `CS(=O)(=O)Nc1cccc(C2CC2(NS(=O)(=O)c2ccc(-c3ccc(Cl)cc3)s2)C(=O)O)c1` (stereo not drawn) [Example 1-130], the values for the IC50 at Recombinant Human MMP-13, on MMP-1 and at aggrecanase-1 were less than 100 nM, no less than 1000 nM and less than 100 nM, respectively.
Take `O=C(O)[C@]1(NS(=O)(=O)c2ccc(-c3ccc(Cl)cn3)s2)C[C@@H]1c1ccccc1` [Example 1-131]: the 50% inhibitory concentration (IC50) at Recombinant Human MMP-13 is less than 100 nM; at MMP-1, no less than 1000 nM; at aggrecanase-1, less than 100 nM.
`O=C(O)C1(NS(=O)(=O)c2ccc(-c3ccc(Cl)cc3)s2)CC1c1cccc(NS(=O)(=O)C(F)(F)F)c1` (stereo not drawn) [Example 1-132]: the IC50 was less than 100 nM on Recombinant Human MMP-13, no less than 1000 nM on MMP-1 and less than 100 nM at aggrecanase-1.
Take `CN(C)c1cccc(C2CC2(NS(=O)(=O)c2ccc(-c3ccc(Cl)cc3)s2)C(=O)O)c1` (stereo not drawn) [Example 1-133]: the IC50 at Recombinant Human MMP-13 is less than 100 nM; on MMP-1, no less than 1000 nM; at aggrecanase-1, less than 100 nM.
For `O=C(O)C1(NS(=O)(=O)c2ccc(-c3ccc(Cl)cc3)s2)CC1c1cccc(CO)c1` (stereo not drawn) [Example 1-134], the IC50 at Recombinant Human MMP-13 is less than 100 nM; on MMP-1, no less than 1000 nM; at aggrecanase-1 it was less than 100 nM.
Take `O=C(O)C1(NS(=O)(=O)c2ccc(-c3ccc(Cl)cc3)s2)CC1c1cccc(NS(=O)(=O)c2cccnc2)c1` (stereo not drawn) [Example 1-136]: the values for the IC50 on Recombinant Human MMP-13, at MMP-1 and on aggrecanase-1 were less than 100 nM, no less than 1000 nM and less than 100 nM, respectively.
Regarding `O=C(O)C1(NS(=O)(=O)c2ccc(-c3ccc(Cl)cc3)s2)CC1c1ccccc1OCCO` (stereo not drawn) [Example 1-138], the IC50 is less than 1000 nM on Recombinant Human MMP-13, no less than 1000 nM on MMP-1 and less than 100 nM at aggrecanase-1.

A word on the IC50: it is the concentration needed to halve the response being measured.
